Test results taken from patent US20230125667A1, “NOVEL TDZD ANALOGS AS AGENTS THAT DELAY, PREVENT, OR REVERSE AGE-ASSOCIATED DISEASES AND AS ANTI-CANCER AND ANTILEUKEMIC AGENTS” (United States Government as represented by the Department …, priority 2020, published 2023).
Where two headings read alike, the source gives them in different places.

What was measured:
[1] = tested on: MV4-11 cell line (myelomonocytic leukemia); settings: MV4-11 cells
[2] = tested on: SH-SY5Y-APPSw cells; assay: Thioflavin-T staining of amyloid-like aggregates in SH-SY5Y-APPSw cells; type: cell-based, human; settings: neuronal cells (FIG. 9)
Method: Several TDZD-conjugated drugs (putative GSK-3 inhibitors) were evaluated for their ability to reduce accumulation of protein aggregates, and for protection against aggregation-associated end-points in the following model systems: (i.) SH-SY5Y-APPSw, a neuroblastoma cell line expressing the Swedish mutation of Amyloid Precursor Protein (APPSw), and thus predisposed to form β-amyloid deposits; (ii.) C. elegans strain CL4176, a model of Alzheimer-like amyloidopathy that can be induced to express human Aβ1-42 in muscle, or may express it at a lower level without induction; (iii.) C. elegans strain AM141, a model of Huntington-like polyglutamine aggregation that constitutively expresses Q40::YFP (a tract of 40 glutamines fused in-frame to yellow fluorescent protein) in muscle cells and forms aggregates progressively with adult aging. The TDZD analog PNR-962 (a putative GSK-3 inhibitor) and other related compounds (not shown) were protective in all aggregation assays.
First, the effects of TDZD analogues were tested on the human neuroblastoma cell line SH-SY5Y-APPSw, a model of Alzheimer-like amyloid aggregation expressing the “Sw” mutant form of Amyloid Precursor Protein, APP. These drugs all produced significant reductions in amyloid-like aggregates, by 30-50% as quantified by thioflavin-T staining intensity (data for PNR-962 are shown in FIG. 4). Modified TDZD-8 analogues PNR-962 and BSK-179 are more anti-aggregative than TDZD-8, lowering total amyloid-staining intensity by a further 14% (data not shown).
Following previously described experimental procedures (Liu, et al. (2005). S100B-induced microglial and neuronal IL-1 expression is mediated by cell type-specific transcription factors. Journal of Neurochemistry. 92(3): 546-553), SH-SY5Y-APPSw neuronal cells expressing an aggregation-prone double mutant of amyloid precursor protein (APPSw) were cultured in DMEM plus 10% (v/v) fetal bovine serum (FBS) at 37° C. Cells were suspended in trypsin/EDTA and rinsed in PBS prior to re-plating or harvesting. […] Human neuroblastoma cells were treated with PNR962, either simultaneous with sAPPα or beginning 1 h prior to sAPPα addition (pre-treatment) in order to ascertain the protective benefits of PNR962 on protein aggregation in human neuroblastoma cell lines. A similar experimental procedure was followed to examine the effect of treatment with these analogs on non-neuronal human cells, exposing human embryonic kidney cells (HEK) that express tau-like aggregates (found in AD-associated diseases) to 0.001, 0.01, and 1-μM doses of TDZD-8 and its analogues.
To observe the protective effects of the novel TDZD analogs on protein aggregation in SY5Y-APPSw cells, using DMEM medium containing 10% fetal calf serum in […], cells were cultured at 37′C for 26 hrs allowing cells to approximately double in number. After 48 h of cell incubation in the presence of specified concentrations of drug or vehicle, cells were fixed 15 min in formaldehyde (4% v/v), washed, and stained 20 min at ˜22° C. in a dark container with 0.1% w/v Thioflavin T mixed with DAPI (1 μg/ml; Life Technologies, Grand Island, N.Y., USA). […] The intensity of aggregate/thioflavin-T fluorescence per field was quantified via an Image J plug-in developed in-house, and normalized to the number of DAPI^+ nuclei counted per field, to obtain an average intensity of aggregates per cell for each treatment.

[3] = tested on: MDA-MB-435; assay: NCI-60 growth inhibition: MDA-MB-435 (Melanoma); type: cell-based, human; settings: Homo sapiens
[4] = tested on: human leukemia cell lines; assay: NCI-60 growth inhibition, leukemia cell lines
[5] = tested on: TK-10; assay: NCI-60 growth inhibition: TK-10 (Renal Cancer); type: cell-based, human; settings: Homo sapiens
[6] = tested on: SR; assay: NCI-60 growth inhibition: SR (Leukemia); type: cell-based, human; settings: Homo sapiens
[7] = tested on: MDA-MB-468; assay: NCI-60 growth inhibition: MDA-MB-468 (Breast Cancer); type: cell-based, human; settings: Homo sapiens; MDA-MB-468 (Breast Cancer); read-out: GI50
[8] = tested on: UACC-257; assay: NCI-60 growth inhibition: UACC-257 (Melanoma); type: cell-based, human; settings: Homo sapiens
[9] = tested on: HS 578T; assay: NCI-60 growth inhibition: HS 578T (Breast Cancer); type: cell-based, human; settings: Homo sapiens
[10] = tested on: HT29; assay: NCI-60 growth inhibition: HT29 (Colon Cancer); type: cell-based, human; settings: Homo sapiens, HT-29
[11] = tested on: OVCAR-8; assay: NCI-60 growth inhibition: OVCAR-8 (Ovarian Cancer); type: cell-based, human; settings: Homo sapiens
[12] = tested on: HOP-92; assay: NCI-60 growth inhibition: HOP-92 (Non-Small-Cell Lung Cancer); type: cell-based, human; settings: Homo sapiens
[13] = tested on: T-47D; assay: NCI-60 growth inhibition: T-47D (Breast Cancer); type: cell-based, human; settings: Homo sapiens, T47D
[14] = tested on: UACC-62; assay: NCI-60 growth inhibition: UACC-62 (Melanoma); type: cell-based, human; settings: Homo sapiens
[15] = tested on: HCT-15; assay: NCI-60 growth inhibition: HCT-15 (Colon Cancer); type: cell-based, human; settings: Homo sapiens
[16] = tested on: U251; assay: NCI-60 growth inhibition: U251 (CNS Cancer); type: cell-based, human; settings: Homo sapiens, U-251
[17] = tested on: MDA-MB-231/ATCC; assay: NCI-60 growth inhibition: MDA-MB-231/ATCC (Breast Cancer); type: cell-based, human; settings: Homo sapiens
[18] = tested on: SK-MEL-5; assay: NCI-60 growth inhibition: SK-MEL-5 (Melanoma); type: cell-based, human; settings: Homo sapiens
[19] = tested on: MCF7; assay: NCI-60 growth inhibition: MCF7 (Breast Cancer); type: cell-based, human; settings: Homo sapiens
[20] = tested on: SW-620; assay: NCI-60 growth inhibition: SW-620 (Colon Cancer); type: cell-based, human; settings: Homo sapiens
[21] = tested on: SNB-19; assay: NCI-60 growth inhibition: SNB-19 (CNS Cancer); type: cell-based, human; settings: Homo sapiens
[22] = tested on: MALME-3M; assay: NCI-60 growth inhibition: MALME-3M (Melanoma); type: cell-based, human; settings: Homo sapiens
[23] = tested on: A498; assay: NCI-60 growth inhibition: A498 (Renal Cancer); type: cell-based, human; settings: Homo sapiens
[24] = tested on: SK-MEL-28; assay: NCI-60 growth inhibition: SK-MEL-28 (Melanoma); type: cell-based, human; settings: Homo sapiens
[25] = tested on: CCRF-CEM; assay: NCI-60 growth inhibition: CCRF-CEM (Leukemia); type: cell-based, human; settings: Homo sapiens
[26] = tested on: PC-3; assay: NCI-60 growth inhibition: PC-3 (Prostate Cancer); type: cell-based, human; settings: Homo sapiens
[27] = tested on: ACHN; assay: NCI-60 growth inhibition: ACHN (Renal Cancer); type: cell-based, human; settings: Homo sapiens
[28] = tested on: RXF 393; assay: NCI-60 growth inhibition: RXF 393 (Renal Cancer); type: cell-based, human; settings: Homo sapiens
[29] = tested on: IGROV1; assay: NCI-60 growth inhibition: IGROV1 (Ovarian Cancer); type: cell-based, human; settings: Homo sapiens, IGROV-1
[30] = tested on: RPMI-8226; assay: NCI-60 growth inhibition: RPMI-8226 (Leukemia); type: cell-based, human; settings: Homo sapiens
[31] = tested on: UO-31; assay: NCI-60 growth inhibition: UO-31 (Renal Cancer); type: cell-based, human; settings: Homo sapiens
[32] = tested on: DU-145; assay: NCI-60 growth inhibition: DU-145 (Prostate Cancer); type: cell-based, human; settings: Homo sapiens
[33] = tested on: SK-MEL-2; assay: NCI-60 growth inhibition: SK-MEL-2 (Melanoma); type: cell-based, human; settings: Homo sapiens
[34] = tested on: SF-268; assay: NCI-60 growth inhibition: SF-268 (CNS Cancer); type: cell-based, human; settings: Homo sapiens
[35] = tested on: OVCAR-3; assay: NCI-60 growth inhibition: OVCAR-3 (Ovarian Cancer); type: cell-based, human; settings: Homo sapiens
[36] = tested on: HL-60(TB); assay: NCI-60 growth inhibition: HL-60(TB) (Leukemia); type: cell-based, human; settings: Homo sapiens; HL-60(TB) (Leukemia); read-out: GI50
[37] = tested on: 786-0; assay: NCI-60 growth inhibition: 786-0 (Renal Cancer); type: cell-based, human; settings: Homo sapiens
[38] = tested on: MOLT-4; assay: NCI-60 growth inhibition: MOLT-4 (Leukemia); type: cell-based, human; settings: Homo sapiens
[39] = tested on: OVCAR-4; assay: NCI-60 growth inhibition: OVCAR-4 (Ovarian Cancer); type: cell-based, human; settings: Homo sapiens
[40] = tested on: CAKI-1; assay: NCI-60 growth inhibition: CAKI-1 (Renal Cancer); type: cell-based, human; settings: Homo sapiens
[41] = tested on: NCI-H460; assay: NCI-60 growth inhibition: NCI-H460 (Non-Small-Cell Lung Cancer); type: cell-based, human; settings: Homo sapiens
[42] = tested on: BT-549; assay: NCI-60 growth inhibition: BT-549 (Breast Cancer); type: cell-based, human; settings: Homo sapiens
[43] = tested on: SF-539; assay: NCI-60 growth inhibition: SF-539 (CNS Cancer); type: cell-based, human; settings: Homo sapiens
[44] = tested on: K-562; assay: NCI-60 growth inhibition: K-562 (Leukemia); type: cell-based, human; settings: Homo sapiens, K562
[45] = tested on: HCT-116; assay: NCI-60 growth inhibition: HCT-116 (Colon Cancer); settings: Homo sapiens, HCT-116
[46] = tested on: EKVX; assay: NCI-60 growth inhibition: EKVX (Non-Small-Cell Lung Cancer); type: cell-based, human; settings: Homo sapiens
[47] = tested on: COLO 205; assay: NCI-60 growth inhibition: COLO 205 (Colon Cancer); type: cell-based, human; settings: Homo sapiens
[48] = tested on: M14; assay: NCI-60 growth inhibition: M14 (Melanoma); type: cell-based, human; settings: Homo sapiens
[49] = tested on: SN12C; assay: NCI-60 growth inhibition: SN12C (Renal Cancer); type: cell-based, human; settings: Homo sapiens
[50] = tested on: NCI-H23; assay: NCI-60 growth inhibition: NCI-H23 (Non-Small-Cell Lung Cancer); type: cell-based, human; settings: Homo sapiens
[51] = tested on: OVCAR-5; assay: NCI-60 growth inhibition: OVCAR-5 (Ovarian Cancer); type: cell-based, human; settings: Homo sapiens
[52] = tested on: NCI-H522; assay: NCI-60 growth inhibition: NCI-H522 (Non-Small-Cell Lung Cancer); settings: Homo sapiens, NCI-H522
[53] = tested on: LOX IMVI; assay: NCI-60 growth inhibition: LOX IMVI (Melanoma); type: cell-based, human; settings: Homo sapiens
[54] = Ibuprofen-TDZD analogs (Table 3)

CC(C)Cc1ccc(C(C)C(=O)NCc2ccc(Cn3c(=O)sn(CCCl)c3=O)cc2)cc1 (stereo not drawn) [BSK-137]
LD50, 7AAD (μM) 24 h [1, 54]: 3.39 µM
LD50, Alamar blue (μM) 24 h [1, 54]: 7.00 µM
LD50, YOPRO (μM) 24 h [1, 54]: 3.28 µM
reduction of aggregate intensity (Thioflavin-T staining) [2]: 34%

C=C1C(=O)O[C@H]2[C@H]1CC/C(COC(=O)NCc1ccc(Cn3c(=O)sn(CCCC)c3=O)cc1)=C\CC[C@@]1(C)O[C@@H]21 [BSK-230]
GI50 [3]: 1.65 µM
GI50 ([4]; Homo sapiens): 0.28 to 0.9 µM
potency against leukemia cell lines (GI50 <1.0) ([4]; NCI panel): highly potent against 3 of the 6 leukemia cell lines
GI50 [5]: 1.81 µM
GI50 [6]: 0.4 µM
GI50 [7]: 1.73 µM
GI50 [8]: 2.03 µM
GI50 [9]: 3.24 µM
GI50 [10]: 2.08 µM
GI50 [11]: 3.64 µM
GI50 [12]: 1.29 µM
GI50 [13]: 2.04 µM
GI50 [14]: 1.62 µM
LD50, 7AAD (μM) 24 h ([1]; MMB-TDZD analogs (Table 2)): 0.01 µM
LD50, Alamar blue (μM) 24 h ([1]; MMB-TDZD analogs (Table 2)): 0.30 µM
LD50, YOPRO (μM) 24 h ([1]; MMB-TDZD analogs (Table 2)): 0.02 µM
LD50 ([1]; values in text): 20 nM
GI50 [15]: 2.02 µM
GI50 [16]: 41.5 µM
GI50 [17]: 1.8 µM
GI50 [18]: 3.18 µM
GI50 [19]: 1.87 µM
GI50 [20]: 1.51 µM
GI50 [21]: 6.63 µM
GI50 [22]: 1.6 µM
GI50 [23]: 3.28 µM
GI50 [24]: 1.8 µM
GI50 [25]: 0.65 µM
GI50 [26]: 1.75 µM
GI50 [27]: 1.67 µM
GI50 [28]: 1.57 µM
GI50 [29]: 1.83 µM
GI50 [30]: 1.48 µM
GI50 [31]: 1.45 µM
GI50 [32]: 1.81 µM
GI50 [33]: 4.53 µM
GI50 [34]: 4.28 µM
GI50 [35]: 1.59 µM
GI50 [36]: 1.81 µM
GI50 [37]: 2 µM
GI50 [38]: 1.55 µM
GI50 [39]: 1.52 µM
GI50 [40]: 1.64 µM
GI50 [41]: 5.92 µM
GI50 [42]: 1.56 µM
GI50 [43]: 1.68 µM
GI50 [44]: 0.89 µM
GI50 [45]: 1.36 µM
GI50 [46]: 3.32 µM
GI50 [47]: 2 µM
GI50 [48]: 1.45 µM
GI50 [49]: 1.73 µM
GI50 [50]: 4.19 µM
GI50 [51]: 1.93 µM
GI50 [52]: 1.19 µM
GI50 [53]: 1.65 µM
